Source: ChEMBL document CHEMBL2311520, “Total synthesis of AMF-26, an antitumor agent for inhibition of the Golgi system, targeting ADP-ribosylation factor 1” (J Med Chem, 2013)
Calls of active or inactive are those of the source. The rule behind the calls is not given here.

Tests used:
HBC4 [1] = assay: Induction of golgi disassembly in human HBC4 cells assessed as presence of GBF1 in cytoplasm at 1 to 100 nM after 1 hr by immunofluorescence microscopy; format: functional, cell-based
BSY-1 [2] = assay: Induction of golgi disassembly in human BSY1 cells assessed as presence of GBF1 in cytoplasm at 1 to 100 nM after 1 hr by immunofluorescence microscopy; format: functional, cell-based
HBC4 [3] = assay: Induction of golgi disassembly in human HBC4 cells assessed as presence of GBF1 in cytoplasm at 0.1 to 1 uM after 1 hr by immunofluorescence microscopy; format: functional, cell-based
BSY-1 [4] = assay: Induction of golgi disassembly in human BSY1 cells assessed as presence of GBF1 in cytoplasm at 0.1 to 1 uM after 1 hr by immunofluorescence microscopy; format: functional, cell-based
[5] = Induction of golgi disassembly in human HBC4 cells assessed as presence of GBF1 in cytoplasm after 1 hr by immunofluorescence microscopy; format: functional, cell-based
[6] = Induction of golgi disassembly in human BSY1 cells assessed as presence of GBF1 in cytoplasm after 1 hr by immunofluorescence microscopy; format: functional, cell-based; details: bsy-1
[7] = Growth inhibition of human HBC4 cells after 48 hrs by Sulforhodamine B assay; format: functional; details: Homo sapiens, HBC4, 48 h; read-out: GI50
[8] = Growth inhibition of human BSY1 cells after 48 hrs by Sulforhodamine B assay; format: functional; details: BSY-1, 48 h, read-out: GI50

Row | SMILES | Activity (HBC4 [1]) | Activity (BSY-1 [2]) | Activity (HBC4 [3]) | Activity (BSY-1 [4]) | EC50 [5] [nM] | EC50 [6] [nM] | GI50 [7] [nM] | GI50 [8] [nM]
1 | C/C(=C\C=C\[C@@H]1[C@H]2[C@H](C)[C@@H](O)[C@H](C)C[C@@H]2C=C[C@@H]1C)C(=O)NCc1cccnc1 (stereo in doubt; form 2) | Active | Active | – | – | – | – | – | –
2 | CC/C(=C\C=C\[C@@H]1[C@H]2[C@H](C)[C@@H](O)[C@H](C)C[C@@H]2C=C[C@@H]1C)C(=O)NCc1cccnc1 | – | – | Active | Active | 340 | 850 | 550 | 190
